The text below walks through data of patent publication US20110224240A1 (Myrexis, Inc., priority 2010, published 2011).

The test system of one experiment is A549. The experiment in a line: 72 hour cytotoxicity, ATP-Lite cell viability. It is filed as cell-based. The settings on record: Homo sapiens, A549, Lung, read-out: 72 Hour Cytotoxicity (IC50, nM ± SD). The procedure:
(§1) A P388 murine leukemia cell line was obtained from NCI, Frederick, Md. P388 cells were cultured in RPMI-1640 supplemented with 10% fetal bovine serum, 2 mM Glutamax, 1 mM sodium pyruvate, 0.1 mM non-essential amino acids and 10 mM HEPES. Cells were grown at 37° C. in a humidified 5% CO2 atmosphere. Exponentially growing P388 cells were plated at 5,000 cells/well in a 96-well flat-bottomed microtiter plate (Corning, Costar #3595, Lowell, Mass.). Twenty-four hours later, test compound was added to cells at final concentrations of 100 nM, 33.3 nM, 11.1 nM, 3.7 nM, 1.23 nM, 0.4 nM and 0.13 nM. Cellular viability was determined 72 hours later by measuring intracellular ATP with ATP-Lite assay system. The effect of compounds on cell viability was calculated by comparing the ATP levels of cells exposed to test compound with those of cells exposed to DMSO. A semi-log plot of relative ATP levels versus compound concentration was used to calculate the compound concentration required to inhibit growth by 50% (IC50). Data was analyzed by Prism software (GraphPad; San Diego, Calif.) by fitting it to a sigmoidal dose response curve.
(§2) A similar procedure was followed with six other cell lines and the results are shown in Table 1: HT-29, HCT-116, A549, OVCAR-3, MIAPaCa-2, and B16F1.

Another experiment deals with B16F1. The experiment in a line: 72 hour cytotoxicity, ATP-Lite cell viability. The class given is cell-based. To be noted: Mus musculus, B16-F1, B16F1, Melanoma, read-out: 72 Hour Cytotoxicity (IC50, nM ± SD). The procedure: as §1, §2
The next experiment deals with HCT-116. The experiment in a line: 72 hour cytotoxicity, ATP-Lite cell viability. The class given is cell-based. To be noted: Homo sapiens, HCT-116, Colorectal Carcinoma, read-out: 72 Hour Cytotoxicity (IC50, nM ± SD). The procedure:
as §1, §2

A further experiment relates to HT-29. The experiment in a line: 72 hour cytotoxicity, ATP-Lite cell viability. To be noted: Homo sapiens, HT-29, Colorectal, read-out: 72 Hour Cytotoxicity (IC50, nM ± SD). The class given is cell-based. The protocol:
as §1, §2

In another experiment the test system is MIAPaCa-2. The experiment in a line: 72 hour cytotoxicity, ATP-Lite cell viability. It is filed as cell-based. The settings on record: Homo sapiens, MIA PaCa-2, MIAPaCa-2, Pancreatic, read-out: 72 Hour Cytotoxicity (IC50, nM ± SD). The protocol:
as §1, §2

The test system of the next experiment is OVCAR-3. The experiment in a line: 72 hour cytotoxicity, ATP-Lite cell viability. The class given is cell-based. To be noted: Homo sapiens, OVCAR-3, Ovarian, read-out: 72 Hour Cytotoxicity (IC50, nM ± SD). The procedure:
as §1, §2

The next experiment has as its system MCF-7. The experiment in a line: Multidrug resistant cell assay, cytotoxicity. The settings on record: Homo sapiens, MCF7, 72 h, read-out: Various MDR Cell Line Cytotoxicity IC50. It is filed as cell-based.
A further experiment deals with A549 cells. The experiment in a line: Microtubule formation in A549 cells (FIG. 1). To be noted: 100 nM, 1 μM, 10 μM. It is filed as cell-based. The procedure:
FIG. 1 depicts the extent of microtubule formation in A549 cells treated with (2-aminomethylquinazolin-4-yl)-(4-methoxyphenyl)methylamine (“Compound 1”). The cells in panel “a” were treated with 100 nM concentration of Compound 1. The cells in panel “b” were treated with 1 μM concentration of Compound 1. The cells in panel “c” were treated with 10 μM concentration of Compound 1.
FIG. 1 depicts the extent of microtubule formation in A549 cells treated with Compound 1. The cells in panel “a” were treated with 100 nM concentration of Compound 1. The cells in panel “b” were treated with 1 μM concentration of Compound 1. The cells in panel “c” were treated with 10 μM concentration of Compound 1.

The test system of experiment [1] is multiple cancer cell lines. The experiment in a line: Pro-apoptotic activity in multiple cancer cell lines. The class given is cell-based.
The next experiment relates to MCF-7/VP (MRP-1). The experiment in a line: Multidrug resistant cell assay, cytotoxicity. The settings on record: Homo sapiens, MCF7-VP, 72 h, read-out: Various MDR Cell Line Cytotoxicity IC50.

By IC50 is commonly meant the concentration that inhibits the measured activity by half.

Molecules are shown by their SMILES.

Consider `COc1ccc(N(C)c2nc(CN)nc3ccccc23)cc1` [Compound 1], for which the IC50 came to 54 nM in the experiment on A549; 37 nM with B16F1; 7.6 ± 1.9 nM with HCT-116; 29 ± 2 nM with HT-29; 56 nM with MIAPaCa-2; 29 ± 20.1 nM in the experiment on OVCAR-3. Further, the IC50 in the experiment on MCF-7 was 27 nM; in the experiment on MCF-7/VP (MRP-1), 13 nM. Besides, the microtubule formation result with A549 cells was “inhibits microtubule formation”. In addition, the “pro-apoptotic activity, potency” value in experiment [1] (multiple cancer types including pancreatic, breast, colorectal, non-small cell lung, melanoma, ovarian cancers and leukemia) is on record as “potency at low nanomolar concentrations”. For the same compound, in experiment [1] (regardless of expression levels of MDR-1 (Pgp-1), MRP-1, BCRP-1), the “induction of apoptosis versus ABC transporter expression” value is listed as “equipotent for induction of apoptosis”.
